# Data published in patent US11395847B2, “Acylated GLP-1/GLP-2 dual agonists” (Zealand Pharma A/S, priority 2016, dated 2022).
# *1 amine or outer side, *2 acyl side, *3 side chain or, on linkers, in order; H or OH if unused. Where a SMILES comes first, the peptide text is derived from it. Side-chain parts run from the residue outwards. [ ]: non-standard residue; d: D form. The star is where a group is joined. C20 diacid = O=C(O)CCCCCCCCCCCCCCCCCCC(=O)*; γGlu = O=C(O)[C@H](CCC(=O)[*:2])N[*:1]; AEEA = NCCOCCOCC(=O)O; Aib = CC(C)(N)C(=O)O
# Biological target: T1, human GLP-2 receptor (Homo sapiens, UniProt O95838, D470N)
# T1 construct: expressed in transfected cells
# T1 sequence (O95838 1-553 D470N): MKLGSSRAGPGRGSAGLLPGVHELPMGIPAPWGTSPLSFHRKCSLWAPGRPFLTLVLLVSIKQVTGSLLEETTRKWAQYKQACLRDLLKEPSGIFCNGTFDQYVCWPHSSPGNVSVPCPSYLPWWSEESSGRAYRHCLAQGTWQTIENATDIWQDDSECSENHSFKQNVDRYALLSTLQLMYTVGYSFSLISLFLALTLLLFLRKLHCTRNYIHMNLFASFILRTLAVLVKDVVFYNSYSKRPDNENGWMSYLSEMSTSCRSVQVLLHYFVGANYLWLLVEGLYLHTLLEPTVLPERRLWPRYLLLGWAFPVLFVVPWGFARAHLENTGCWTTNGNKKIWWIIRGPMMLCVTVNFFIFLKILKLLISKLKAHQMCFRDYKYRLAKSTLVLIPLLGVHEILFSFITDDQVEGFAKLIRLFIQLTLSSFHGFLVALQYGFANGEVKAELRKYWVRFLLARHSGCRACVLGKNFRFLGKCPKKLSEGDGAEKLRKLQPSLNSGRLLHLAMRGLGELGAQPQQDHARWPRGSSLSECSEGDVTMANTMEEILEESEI
# Assay: GLP-2 receptor potency assay (cAMP ALPHASCREEN, HEK293 cells stably expressing GLP-2 R)
# Assay type: cell-based
# Conditions: cAMP response, HEK293 cells expressing human GLP-2 R; read-out: EC50 GLP-2
# Description: One useful in vitro assay for measuring GLP-1 and GLP-2 receptor activity is quantitation of cAMP, i.e. 3′-5′-cyclic adenosine monophosphate, which is a second messenger essential in many biological processes, and one of the most ubiquitous mechanisms for regulating cellular functions.
# For subcloning into a mammalian expression vector, primers for subcloning were obtained from DNA-Technology, Risskov, Denmark. The 5′ and 3′ primers used for the PCR reaction include terminal restriction sites for cloning and the context of the 5′ primer is modified to a Kozak consensus without changing the sequence of the product encoded by the ORF. […] The generated PCR product was purified using GFX PCR and Gel band purification kit, digested with restriction enzymes and cloned into the mammalian expression vector using Rapid DNA Ligation Kit. Ligation reaction was transformed to XL10 Gold Ultracompetent cells and colonies were picked for DNA production using ENDOFREE® Plasmid maxi kit. Subsequent sequence analysis was conducted by MWG Eurofins, Germany.
# HEK293 cells were transfected using the LIPOFECTAMINE® PLUS transfection method. The day before transfection, HEK293 cells were seeded in two T75 flasks at a density of 2×10^6 cells/T75 flask in cell culturing medium without antibiotics. On the day of transfection, cells were washed with 1× DPBS and medium was replaced with OPTI-MEM© to a volume of 5 mL/T75 flask before addition of LIPOFECTAMINE®-plasmid complexes were added gently and drop wise to the cells in T75 flasks and replaced with growth medium after 3 hours and again to growth medium supplemented with 500 μg/mL G418 after 24 hours. Following 4 weeks in G418 selection, clones were picked and tested in a functional GLP-2 receptor potency assay as described below.
# The cAMP ALPHASCREEN® assay from Perkin Elmer was used to quantitate the cAMP response to activation of the GLP1 and GLP2 receptor, respectively. […] Data from test compounds eliciting an increase in the intracellular level of cAMP were normalized relative to the positive and negative control (vehicle) to calculate the EC50 and maximal response from the concentration response curve.
row,SMILES,EC50 [pM]
1,"CC[C@H](C)[C@H](NC(=O)[C@H](Cc1ccccc1)NC(=O)[C@H](CC(=O)O)NC(=O)[C@H](CCCNC(=N)N)NC(=O)[C@H](C)NC(=O)[C@H](C)NC(=O)[C@H](CCC(N)=O)NC(=O)[C@H](CCCCNC(=O)COCCOCCNC(=O)[C@H](CCCCN)NC(=O)[C@H](CCC(=O)O)NC(=O)[C@H](CCCCN)NC(=O)CC[C@H](NC(=O)CCCCCCCCCCCCCCCCCCC(=O)O)C(=O)O)NC(=O)[C@H](CC(=O)O)NC(=O)[C@H](CC(C)C)NC(=O)[C@@H](NC(=O)[C@@H](NC(=O)[C@H](C)NC(=O)[C@H](CC(C)C)NC(=O)[C@H](CCC(=O)O)NC(=O)[C@H](CO)NC(=O)[C@@H](NC(=O)[C@H](Cc1ccccc1)NC(=O)[C@H](CO)NC(=O)CNC(=O)[C@H](CCC(=O)O)NC(=O)C(C)(C)NC(=O)[C@@H](N)Cc1c[nH]cn1)[C@@H](C)O)[C@@H](C)O)[C@@H](C)CC)C(=O)N[C@@H](C)C(=O)N[C@@H](Cc1c[nH]c2ccccc12)C(=O)N[C@@H](CC(C)C)C(=O)N[C@H](C(=O)N[C@@H](CCC(=O)O)C(=O)N[C@@H](Cc1c[nH]cn1)C(=O)N[C@@H](CCCCN)C(=O)N[C@H](C(=O)N[C@H](C(=O)N[C@@H](CC(=O)O)C(=O)O)[C@@H](C)O)[C@@H](C)CC)[C@@H](C)CC [Compound 57] (HELM PEPTIDE1{H.[Aib].E.G.S.F.T.S.E.L.A.T.I.L.D.K.Q.A.A.R.D.F.I.A.W.L.I.E.H.K.I.T.D}|PEPTIDE2{[O=C(O)CCCCCCCCCCCCCCCCCCC(=O)[*:2]].[gGlu].K.E.K.[O=C(COCCOCCN[*:1])[*:2]]}$PEPTIDE1,PEPTIDE2,16:R3-6:R2$$$V2.0)",83
2,CC[C@H](C)[C@H](NC(=O)[C@H](Cc1ccccc1)NC(=O)[C@H](CC(=O)O)NC(=O)[C@H](CCCCNC(=O)COCCOCCNC(=O)COCCOCCNC(=O)[C@H](CCCCN)NC(=O)[C@H](CCC(=O)O)NC(=O)[C@H](CCCCN)NC(=O)CC[C@H](NC(=O)CCCCCCCCCCCCCCCCCCC(=O)O)C(=O)O)NC(=O)[C@H](C)NC(=O)[C@H](C)NC(=O)[C@H](CCC(N)=O)NC(=O)[C@H](CCC(=O)O)NC(=O)[C@H](CC(=O)O)NC(=O)[C@H](CC(C)C)NC(=O)[C@@H](NC(=O)[C@@H](NC(=O)[C@H](C)NC(=O)[C@H](CC(C)C)NC(=O)[C@H](CCC(=O)O)NC(=O)[C@H](CO)NC(=O)[C@@H](NC(=O)[C@H](Cc1ccccc1)NC(=O)[C@H](CO)NC(=O)CNC(=O)[C@H](CCC(=O)O)NC(=O)C(C)(C)NC(=O)[C@@H](N)Cc1c[nH]cn1)[C@@H](C)O)[C@@H](C)O)[C@@H](C)CC)C(=O)N[C@@H](C)C(=O)N[C@@H](Cc1c[nH]c2ccccc12)C(=O)N[C@@H](CC(C)C)C(=O)N[C@H](C(=O)N[C@@H](CCC(=O)O)C(=O)N[C@@H](Cc1c[nH]cn1)C(=O)N[C@@H](CCCCN)C(=O)N[C@H](C(=O)N[C@H](C(=O)N[C@@H](CC(=O)O)C(=O)O)[C@@H](C)O)[C@@H](C)CC)[C@@H](C)CC [Compound 66] (H-H[Aib]EGSFTSELATILDEQAAK([AEEA-AEEA-Lys-Glu-Lys-γGlu-C20 diacid])DFIAWLIEHKITD-OH),180
3,"CC[C@H](C)[C@H](NC(=O)[C@H](Cc1ccccc1)NC(=O)[C@H](CC(=O)O)NC(=O)[C@H](CCCNC(=N)N)NC(=O)[C@H](C)NC(=O)[C@H](C)NC(=O)[C@H](CC(C)C)NC(=O)[C@H](CCCCNC(=O)CC[C@H](NC(=O)CCCCCCCCCCCCCCCCC(=O)O)C(=O)O)NC(=O)[C@H](CC(=O)O)NC(=O)[C@H](CC(C)C)NC(=O)[C@@H](NC(=O)[C@@H](NC(=O)[C@H](C)NC(=O)[C@H](CC(C)C)NC(=O)[C@H](CCC(=O)O)NC(=O)[C@H](CO)NC(=O)[C@@H](NC(=O)[C@H](Cc1ccccc1)NC(=O)[C@@H](NC(=O)CNC(=O)[C@H](CCC(=O)O)NC(=O)C(C)(C)NC(=O)[C@@H](N)Cc1c[nH]cn1)[C@@H](C)O)[C@@H](C)O)[C@@H](C)O)[C@@H](C)CC)C(=O)N[C@@H](C)C(=O)N[C@@H](Cc1c[nH]c2ccccc12)C(=O)N[C@@H](CC(C)C)C(=O)N[C@H](C(=O)N[C@@H](CCC(=O)O)C(=O)N[C@@H](Cc1c[nH]cn1)C(=O)N[C@@H](CCCCN)C(=O)N[C@H](C(=O)N[C@H](C(=O)N[C@@H](CC(=O)O)C(=O)O)[C@@H](C)O)[C@@H](C)CC)[C@@H](C)CC [Compound 12] (HELM PEPTIDE1{H.[Aib].E.G.T.F.T.S.E.L.A.T.I.L.D.K.L.A.A.R.D.F.I.A.W.L.I.E.H.K.I.T.D}|PEPTIDE2{[O=C(O)CCCCCCCCCCCCCCCCC(=O)[*:2]].[gGlu]}$PEPTIDE1,PEPTIDE2,16:R3-2:R2$$$V2.0)",110
4,"CC[C@H](C)[C@H](NC(=O)[C@H](Cc1ccccc1)NC(=O)[C@H](CC(=O)O)NC(=O)[C@H](CCCNC(=N)N)NC(=O)[C@H](C)NC(=O)[C@H](C)NC(=O)[C@H](CCC(=O)O)NC(=O)[C@H](CCCCNC(=O)CC[C@H](NC(=O)CCCCCCCCCCCCCCCCC(=O)O)C(=O)O)NC(=O)[C@H](CC(=O)O)NC(=O)[C@H](CC(C)C)NC(=O)[C@@H](NC(=O)[C@@H](NC(=O)[C@H](C)NC(=O)[C@H](CC(C)C)NC(=O)[C@H](CCC(=O)O)NC(=O)[C@H](CO)NC(=O)[C@H](CO)NC(=O)[C@H](Cc1ccccc1)NC(=O)[C@@H](NC(=O)CNC(=O)[C@H](CCC(=O)O)NC(=O)C(C)(C)NC(=O)[C@@H](N)Cc1c[nH]cn1)[C@@H](C)O)[C@@H](C)O)[C@@H](C)CC)C(=O)N[C@@H](C)C(=O)N[C@@H](Cc1c[nH]c2ccccc12)C(=O)N[C@@H](CC(C)C)C(=O)N[C@H](C(=O)N[C@@H](CCC(=O)O)C(=O)N[C@@H](Cc1c[nH]cn1)C(=O)N[C@@H](CCCCN)C(=O)N[C@H](C(=O)N[C@H](C(=O)N[C@@H](CC(=O)O)C(=O)O)[C@@H](C)O)[C@@H](C)CC)[C@@H](C)CC [Compound 1] (HELM PEPTIDE1{H.[Aib].E.G.T.F.S.S.E.L.A.T.I.L.D.K.E.A.A.R.D.F.I.A.W.L.I.E.H.K.I.T.D}|PEPTIDE2{[O=C(O)CCCCCCCCCCCCCCCCC(=O)[*:2]].[gGlu]}$PEPTIDE1,PEPTIDE2,16:R3-2:R2$$$V2.0)",350
